Consider one molecule from US8535928B2, “Protease and use thereof” (Osaka University, priority 2008, dated 2013).

A word on the Km: it is the substrate concentration at which the rate is half of its maximum.

Starred links: 1 amine or outer side, 2 acyl side, 3 side chain; linkers in the order of their positions; H or OH if unused. Residues, ends and D or L forms follow the SMILES beside them. *: point of attachment. pNA = O=[N+]([O-])c1ccc(N*)cc1; Suc = O=C(CCC(=O)[*:2])[*:1]

The target of this assay is T1, Thermococcus kodakaraensis KOD1 protease Tk-SP (mature subtilisin-like serine protease, SEQ ID NO: 1 or SEQ ID NO: 3) (Thermococcus kodakarensis, UniProt Q5JIZ5).
T1 construct: C-terminus at 562 or 563
T1 sequence (Q5JIZ5 137-562): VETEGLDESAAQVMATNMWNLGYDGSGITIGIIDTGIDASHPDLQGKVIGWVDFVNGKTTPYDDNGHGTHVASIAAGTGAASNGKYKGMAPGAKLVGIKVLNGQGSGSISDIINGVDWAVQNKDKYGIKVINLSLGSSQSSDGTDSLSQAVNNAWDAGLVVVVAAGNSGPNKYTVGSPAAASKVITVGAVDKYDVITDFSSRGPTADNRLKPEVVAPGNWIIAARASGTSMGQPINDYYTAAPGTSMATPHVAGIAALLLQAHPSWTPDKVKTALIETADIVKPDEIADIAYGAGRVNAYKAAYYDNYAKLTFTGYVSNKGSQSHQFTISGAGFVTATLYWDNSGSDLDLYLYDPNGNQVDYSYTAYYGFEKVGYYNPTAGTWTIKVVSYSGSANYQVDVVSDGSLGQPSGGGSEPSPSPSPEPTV
Put plainly: Rate parameters of Tk-SP with Suc-AAPF-pNA (Michaelis-Menten). In kind it is biochemical. The method, then:
For examination of the pH dependence and the buffer dependence of the Tk-SP, enzyme reactions were performed using acetate buffers (pH 4.5, 5.0, 5.2, 5.4 and 5.6), MES buffers (pH 5.5, 6.0, 6.5 and 7.0), HEPES buffers (pH 7.0 and 7.5), Tris-HCl buffers (pH 7.0, 7.5, 8.0, 8.5 and 9.0), glycine-NaOH buffers (pH 8.5, 9.0, 9.5 and 10.0) and CAPS-NaOH buffers (pH 9.0, 9.5, 10.0, 10.5, 11.0 and 11.5) in the following procedure. 100 μl of a reaction mixture containing a 50 mM buffer and 2 mM Suc-AAPF-pNA (synthetic substrate) was incubated at 20° C. for 5 minutes. To this, 0.1 μg of the Tk-SP was added and the reaction mixture was further incubated at 20° C. for 10 minutes. The reaction was stopped by addition of 10 μl of acetic acid, and then the amount of p-nitroaniline produced from the synthetic substrate Suc-AAPF-pNA was determined by use of the absorption coefficient of 8900 M^−1 cm^−1 from the absorbance at 410 nm in an ultraviolet spectrophotometer (Beckman model DU640). The amount of the enzyme which catalyzes the production of 1 μmol of p-nitroaniline per minute was defined as “one unit.” The enzyme activity per milligram of the protein was defined as specific activity.
By use of, as a substrate, Suc-AAPF-pNA at various concentrations ranging from 0.01 to 2 mM, the specific activity of the Tk-SP was measured at 20 and 80° C. The measurement procedure was the same as that of Example 2. The obtained values were applied to the Michaelis-Menten equation for calculation of the rate parameters. For comparison, the specific activity of a known thermostable protease, Tk-subtilisin (see nonpatent literature 1) was similarly measured and then the rate parameters thereof were calculated.

Consider `C[C@H](NC(=O)CCC(=O)O)C(=O)N[C@@H](C)C(=O)N1CCC[C@H]1C(=O)N[C@@H](Cc1ccccc1)C(=O)Nc1ccc([N+](=O)[O-])cc1` [Suc-AAPF-pNA] (Suc-AAPF-pNA), for which, for the setting “80° C.”, the “Km value relative to the Km value of Tk-subtilisin” value is listed as “about 1/10”. Further, the Km (80° C., substrate 0.01 to 2 mM) was 100 to 1000 µM. Besides, the “Km value compared with that of Tk-subtilisin” value (at either temperature (20 and 80° C.)) is listed as “smaller than that of Tk-subtilisin”.
